In patent US6169074A, “Peptide inhibitors of neurotransmitter secretion by neuronal cells” (The Regents of the University of California, priority 1997, dated 2001):

Columns and labels:
[1] = system: catecholamine release from permeabilized bovine chromaffin cells; type: cell-based; conditions: for IC50: read-out: concentration reaching 50% inhibitory activity (inhibition of Ca2+ dependent secretion); for effect on Ca2+ dependent (Ca2+-triggered) secretion: peptides at 100 μM concentration, FIG. 7A
[2] = system: mouse neuron; test: Mouse neuron inhibition assay (Mehta, et al., 1996); type: cell-based
Protocol: ii. 47% at 2 μM; 87% at 20 μM, as measured in the mouse neuron inhibition assay described in, for example, Mehta, et al., Proc. Natl. Acad. Sci. USA, 93:10471-10476, 1996 (incorporated herein for purposes of reference).

Substance: 187-SNKTRIDEANQRATKMLGSG-206 [ESUP/A20h, 20-mer peptide encompassing the C-terminal region of SNAP-25 (aa 187-206)]
- Inhibitory Activity ([1]; at 100 μM peptide, bovine chromaffin cells): 65%
- IC50 [1]: 12000 nM
- Inhibitory Activity ([2]; at 2 μM peptide): 47%
- Inhibitory Activity ([2]; at 20 μM peptide): 87%

Substance: TDSSGREMIKANKQLANGTR [ESUP/20Ah^RD, control peptide with the same amino acid composition as ESUP/A20h but in random order, reference compound]
- effect on Ca2+ dependent (Ca2+-triggered) secretion [1]: no effect

Substance: MLDEQGEQLER [SNAP-25(49-59), reference compound]
- effect on Ca2+ dependent (Ca2+-triggered) secretion [1]: did not affect

Substance: 170-EIDTQNRQIDRIMEKADSNK-189 [ESUP/E20h]
- IC50 [1]: 1800 nM

Substance: 181-IMEKADSNKTRIDEANQRATKMLGSG-206 [ESUP/E26h]
- IC50 [1]: 250 nM
